pIC50: −log10 of the molar value.

Type in all cases: functional, cell-based
For one experiment, the system named is MDA-MB-231. Briefly: Antiproliferative activity against human MDA-MB-231 cells after 48 to 72 hrs by Alamar blue assay. A general note: Alamar Blue is a resazurin reagent that responds to reducing activity.
The next experiment relates to RKO. Briefly: Antiproliferative activity against human RKO cells after 48 to 72 hrs by Alamar blue assay.
A short description of experiment [1]: Antiproliferative activity against human SF295 cells after 48 to 72 hrs by Alamar blue assay. The conditions noted are these: SF-295.
The subject of the next experiment is MCF7. Briefly: Antiproliferative activity against human MCF7 cells after 48 to 72 hrs by Alamar blue assay.

With `CC(=O)N[C@H](C)[C@@H](O)[C@@H](C)[C@@H]1OC(=O)/C=C/C=C(C)\C=C\[C@]2(C)CCC=C[C@@H]2/C=C(C)/C=C/[C@H]1C`, the pIC50 in the experiment with MDA-MB-231 is 7.20; with RKO, 6.67; in experiment [1], 7.20; with MCF7, 7.44.
Take `CC(=O)N[C@H](C)[C@@H](O)[C@@H](C)[C@@H]1OC(=O)/C=C/C=C(C)/C=C/[C@]2(C)CCC=C[C@@H]2/C=C(C)/C=C/[C@H]1C`: the pIC50 in the experiment on MDA-MB-231 is 6.42; with RKO, 5.97; in experiment [1], 6.21; in the experiment with MCF7, 6.42.
As for `CC(=O)N[C@H](C)[C@@H](O)[C@@H](C)[C@@H]1OC(=O)CC/C=C(C)\C=C\[C@]2(C)CCC=C[C@@H]2/C=C(C)/C=C/[C@H]1C`, the pIC50 (in the experiment with MDA-MB-231; with RKO; in experiment [1]; in the experiment with MCF7) was less than 5.30 throughout.

A word on the pIC50: it is the IC50 on a negative log10 scale, so that one unit is a factor of ten.
